Source: PubChem BioAssay (NCI)
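Compound exposure: 48 hours, 5 concentrations, 96-well plates. Definition used: TGI = concentration required for complete inhibition of growth.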

Experiments:
Assay in all cases: DTP human tumour cell line panel, 48 h
[1] = system: SNB-75 CNS
[2] = system: TK-10 renal
[3] = system: K-562 leukemia
[4] = system: HCT-116 colon
[5] = system: MALME-3M melanoma
[6] = system: RPMI-8226 leukemia
[7] = system: HCT-15 colon
[8] = system: NCI/ADR-RES ovarian
[9] = system: OVCAR-5 ovarian
[10] = system: CCRF-CEM leukemia
[11] = system: SK-MEL-5 melanoma
[12] = system: SK-OV-3 ovarian
[13] = system: ACHN renal
[14] = system: A549 NSCLC
[15] = system: BT-549 breast
[16] = system: HS 578T breast
[17] = system: OVCAR-3 ovarian
[18] = system: SK-MEL-28 melanoma
[19] = system: NCI-H23 lung
[20] = system: HL-60(TB) leukemia

| Structure (SMILES) | TGI [1] [µM] | TGI [2] [µM] | TGI [3] [µM] | TGI [4] [µM] | TGI [5] [µM] | TGI [6] [µM] | TGI [7] [µM] | TGI [8] [µM] | TGI [9] [µM] | TGI [10] [µM] | TGI [11] [µM] | TGI [12] [µM] | TGI [13] [µM] | TGI [14] [µM] | TGI [15] [µM] | TGI [16] [µM] | TGI [17] [µM] | TGI [18] [µM] | TGI [19] [µM] | TGI [20] [µM] |
| --- | --- | --- | --- | --- | --- | --- | --- | --- | --- | --- | --- | --- | --- | --- | --- | --- | --- | --- | --- | --- |
| COc1ccc(NC/C=C/C(=C/COC(C)=O)OC(C)=O)cc1 | 20.5 | 3.74 | 3.62 | 3.55 | 5.57 | 0.829 | 5.1 | 7.04 | 3.38 | 5.12 | 28.8 | 28.2 | 3.29 | 33 | 3.16 | 6.12 | 4.28 | 3.89 | – | – |
| C[C@H](NC(=O)CNC(=O)CCCCCC(=O)NCC(=O)N[C@@H](C)C(=O)OCc1ccccc1)C(=O)OCc1ccccc1 | > 100 | > 100 | > 100 | > 100 | > 100 | > 100 | > 100 | > 100 | > 100 | > 100 | – | > 100 | > 100 | > 100 | > 100 | > 100 | > 100 | > 100 | > 100 | – |
| c1ccc2c(-c3csc(-c4c[nH]c5ccccc45)n3)c[nH]c2c1 | > 79.1 | > 100 | 15.1 | > 100 | > 100 | – | > 100 | > 100 | > 100 | – | – | > 100 | > 100 | > 100 | > 100 | > 100 | > 100 | > 100 | > 100 | 47.6 |
| CCC(=O)C(CCN1CCC(N2C(=O)C(CCC#N)c3ccccc32)CC1)(c1ccccc1)c1ccccc1 (configuration not stated) | 31.7 | 31.2 | 23.1 | 17 | 24.8 | 21.8 | 26 | 25 | 67.7 | – | 22.1 | 37.9 | 43.8 | 31.7 | 26.2 | 26.5 | 22.9 | 34.9 | 48.8 | 22.2 |
| CCCC(=O)OCOC(=O)N(C)N=Nc1ccc(C(=O)OCC)cc1 | > 100 | > 100 | > 100 | 46.6 | 43.3 | > 100 | 75.4 | > 100 | > 100 | > 100 | > 100 | > 100 | 56.7 | > 100 | 76.9 | 85.7 | > 100 | > 100 | 66.4 | – |
| COc1ccc(-n2c(C)nc3ccc(NC4OC(CO)C(O)C(O)C4O)cc3c2=O)cc1 (configuration not stated) | > 100 | > 100 | > 100 | > 100 | > 100 | > 100 | > 100 | > 100 | > 100 | – | > 100 | – | > 100 | – | > 100 | > 100 | > 100 | > 100 | > 100 | > 100 |
| S=C(N/N=C/c1ccccn1)N1CCCCCC1 | 0.987 | 38 | > 100 | – | 42.4 | 0.491 | > 33.5 | 0.105 | > 54.2 | 0.393 | 1.18 | – | 1.53 | 29.1 | 22.6 | > 100 | 9.3 | > 100 | > 58.6 | – |
| N#Cc1c(-c2ccccc2)cc(-c2ccccc2)n(C2OCC(O)C(O)C2O)c1=S (configuration not stated) | 66.3 | 58.2 | > 100 | 28.4 | 81 | 34.7 | 60.6 | 86.5 | 58.5 | 93.1 | 27.9 | 27.3 | 38.1 | 57.4 | 44 | > 100 | 43.2 | 77.1 | 46.4 | – |
| O=c1[nH]c(=O)n(C2C(CO)OC(CO)C2O)cc1F (configuration not stated) | > 100 | > 100 | > 100 | > 100 | > 100 | > 100 | > 100 | > 100 | > 100 | > 100 | > 100 | > 100 | > 100 | > 100 | > 100 | > 100 | > 100 | > 100 | > 100 | – |
| CC(=O)N(CC(=O)C(=O)NNc1ccoc1)c1ccc(Cl)cc1 | > 100 | > 100 | > 100 | > 100 | > 100 | > 100 | > 100 | > 100 | > 100 | > 100 | > 100 | > 100 | > 100 | > 100 | > 100 | > 100 | > 100 | > 100 | > 100 | – |
